Measured values: patent US8916567B2, “Certain crystalline hydrates, pharmaceutical compositions thereof and methods for preparation and use thereof” (Universal Technology Alliance, Inc., priority 2009, dated 2014)
Values after ≈ are worked out from the molar mass of the structure shown.

Experiments:
S. epidermidis MSSE = experiment: Minimum inhibitory concentration (MIC) in vitro, agar dilution method; assay type: cell-based
From the text: (§1) Hydrates Samples: • The 1/2 hydrates prepared according to Example 2; • Content (purity % wt): 99.0%; • The 1/12 hydrates prepared according to Example 253; • Content (purity % wt): 98.9%; • The 2/7 hydrates prepared according to Example 106; • Content (purity % wt): 98.8%; • The 2/5 hydrates prepared according to Example 162; • Content (purity % wt): 99.0%; • The 3/4 hydrates prepared according to Example 337; • Content (purity % wt): 98.8%; • Preparation: dissolved in DMSO, and further diluted with sterile distilled water to desired concentration. • The hydrates samples were supplied by Sichuan Beilike Biotechnology LTD.
(§2) Anhydrous Sample: • The anhydrous compounds prepared according to Example 1. • Content (purity % wt): 98.6%; • Preparation: dissolved in DMSO, and further diluted with sterile distilled water to desired concentration; • The anhydrous sample was supplied by Sichuan Beilike Biotechnology LTD.
(§3) Control Samples • Vancomycin: provided by Sichuan Beilike Biotechnology LTD, purchased from Eli Lilly Japan K.K. • Lot No.: WM16151 (production date: Apr. 10, 2007, expiration date: Apr. 9, 2009). • Specification: 500 mg/bottle; solubility (physicochemical properties): soluble in water. • Linezolid (LZ): provided by Sichuan Beilike Biotechnology LTD.
(§4) Bacteria Strains • Clinically isolated strains: clinically isolated bacterial pathogens collected in Sichuan and Beijing areas from March 2007 to May 2008. • Species include: Staphylococcus aureus MRSA, Staphylococcus aureus MSSA, S. epidermidis MRSE, S. epidermidis MSSE, E. feacalis, and E. feacium, a total of 51 strains. • Quality control strains: Staphylococcus aureus […] strain kept in Sichuan Industrial Institute of Antibiotics, purchased from the medical testing center of the Ministry of Health, China.
(§5) Experimental Method: • Measurement of the minimum inhibitory concentration (MIC) in vitro: • The minimum inhibitory concentration (MIC) of each test sample against test strains was measured by using the agar dilution method recommended by the U.S. National Committee for Clinical Laboratory Standards (CLSI/NCCIs).
(§6) Based on the CLSI/NCCL's testing standard with respect to vancomycin and linezolid (see Table 6), the minimum inhibitory concentration (MIC) values of every strain were reported, and the MIC50 (the concentration that inhibits 50% of the different strains of bacteria), MIC90 (the concentration that inhibits 90% of the different strains of bacteria), and MICrange (the range of the MIC value of the tested strains) were observed.

S. epidermidis MRSE = experiment: as above; assay type: cell-based
From the text: as §1, §2, §3, §4, §5, §6

E. feacalis = experiment: as above; assay type: cell-based
From the text: as §1, §2, §3, §4, §5, §6

E. feacium = experiment: as above; assay type: cell-based
From the text: as §1, §2, §3, §4, §5, §6

[1] = system: Staphylococcus aureus MRSA; experiment: as above; assay type: cell-based; details: S. MRSA (10 strains), clinically isolated
From the text: as §1, §2, §3, §4, §5, §6

[2] = system: Staphylococcus aureus MSSA; experiment: as above; assay type: cell-based; details: S. MSSA (11 strains), clinically isolated
From the text: as §1, §2, §3, §4, §5, §6

[3] = Solubility in different solvents according to Chinese Pharmacopeia (2005 edition); assay type: physicochemical; details: at the given solute:solvent ratio
Procedure: The solubility of the (S)—[N-3-(3′-fluoro-4′-(4″-phenylpiperazinyl))phenyl-2-oxo-5-oxazolelidinyl]methylacetamide hydrates was tested with different solvents, and the test results are shown in Tables 15-19. The solubility was measured according to Chinese Pharmacopeia (2005 edition).

[4] = S. ep MSSE (10 strains), clinically isolated
[5] = S. ep MRSE (10 strains), clinically isolated
[6] = E. feacalis (5 strains), clinically isolated
[7] = E. feacium (5 strains), clinically isolated

Compound `CC(=O)NC[C@H]1CN(c2ccc(N3CCN(c4ccccc4)CC3)c(F)c2)C(=O)O1` [Anhydrous compound] has an MIC50 (S. epidermidis MSSE; [4]) of 1 µg/mL (≈ 2.42 µM), an MIC90 (S. epidermidis MSSE; [4]) of 2 µg/mL (≈ 4.85 µM) and an MICrange (S. epidermidis MSSE; [4]) of 1 to 2 µg/mL. The MIC (S. epidermidis MSSE; strain S. ep MSSE88 (Table 8 No. 5)) was 2 µg/mL (≈ 4.85 µM), the MIC (S. epidermidis MSSE; strain S. ep MSSE118 (Table 8 No. 2)) was 1 µg/mL (≈ 2.42 µM) and the MIC (S. epidermidis MSSE; strain S. ep MSSE137 (Table 8 No. 4)) was 2 µg/mL (≈ 4.85 µM). The MIC (S. epidermidis MSSE; strain S. ep MSSE140 (Table 8 No. 3)) was 1 µg/mL (≈ 2.42 µM), the MIC (S. epidermidis MSSE; strain S. ep MSSE153 (Table 8 No. 1)) was 2 µg/mL (≈ 4.85 µM) and the MIC50 (S. epidermidis MRSE; [5]) was 2 µg/mL (≈ 4.85 µM). It also gave an MIC90 (S. epidermidis MRSE; [5]) of 2 µg/mL (≈ 4.85 µM), an MICrange (S. epidermidis MRSE; [5]) of 2 µg/mL and an MIC (S. epidermidis MRSE; strain S. ep MRSE4 (Table 8 No. 9)) of 2 µg/mL (≈ 4.85 µM). For the same compound, the MIC (S. epidermidis MRSE; strain S. ep MRSE20 (Table 8 No. 6)) was 2 µg/mL (≈ 4.85 µM), the MIC (S. epidermidis MRSE; strain S. ep MRSE87 (Table 8 No. 13)) was 2 µg/mL (≈ 4.85 µM) and the MIC (S. epidermidis MRSE; strain S. ep MRSE90 (Table 8 No. 10)) was 2 µg/mL (≈ 4.85 µM). It also gave an MIC (S. epidermidis MRSE; strain S. ep MRSE101 (Table 8 No. 7)) of 2 µg/mL (≈ 4.85 µM), an MIC (S. epidermidis MRSE; strain S. ep MRSE105 (Table 8 No. 11)) of 2 µg/mL (≈ 4.85 µM) and an MIC (S. epidermidis MRSE; strain S. ep MRSE140 (Table 8 No. 14)) of 2 µg/mL (≈ 4.85 µM). For the same compound, the MIC (S. epidermidis MRSE; strain S. ep MRSE142 (Table 8 No. 12)) was 2 µg/mL (≈ 4.85 µM), the MIC (S. epidermidis MRSE; strain S. ep MRSE210 (Table 8 No. 15)) was 2 µg/mL (≈ 4.85 µM) and the MIC (S. epidermidis MRSE; strain S. ep MRSE211 (Table 8 No. 8)) was 2 µg/mL (≈ 4.85 µM). It also gave an MIC50 (E. feacalis; [6]) of 4 µg/mL (≈ 9.7 µM), an MIC90 (E. feacalis; [6]) of 8 µg/mL (≈ 19.4 µM) and an MICrange (E. feacalis; [6]) of 2 to 8 µg/mL. It also gave an MIC (E. feacalis; strain Efa 54 (Table 8 No. 20)) of 4 µg/mL (≈ 9.7 µM), an MIC (E. feacalis; strain Efa 116 (Table 8 No. 16)) of 4 µg/mL (≈ 9.7 µM) and an MIC (E. feacalis; strain Efa 907 (Table 8 No. 19)) of 2 µg/mL (≈ 4.85 µM). The MIC (E. feacalis; strain Efa 3006 (Table 8 No. 18)) was 4 µg/mL (≈ 9.7 µM), the MIC (E. feacalis; strain Efa 33748 (Table 8 No. 17)) was 8 µg/mL (≈ 19.4 µM) and the MIC50 (E. feacium; [7]) was 4 µg/mL (≈ 9.7 µM). For the same compound, the MIC90 (E. feacium; [7]) was 8 µg/mL (≈ 19.4 µM), the MICrange (E. feacium; [7]) was 2 to 8 µg/mL and the MIC (E. feacium; strain Efm 98 (Table 8 No. 21)) was 4 µg/mL (≈ 9.7 µM). It also gave an MIC (E. feacium; strain Efm 171 (Table 8 No. 25)) of 4 µg/mL (≈ 9.7 µM), an MIC (E. feacium; strain Efm 197 (Table 8 No. 22)) of 2 µg/mL (≈ 4.85 µM) and an MIC (E. feacium; strain Efm N3 (Table 8 No. 23)) of 8 µg/mL (≈ 19.4 µM). For the same compound, the MIC (E. feacium; strain Efm N4 (Table 8 No. 24)) was 8 µg/mL (≈ 19.4 µM), the MIC50 [1] was 2 µg/mL (≈ 4.85 µM) and the MIC90 [1] was 2 µg/mL (≈ 4.85 µM). The MICrange [1] was 1 to 2 µg/mL, the MIC50 [2] was 2 µg/mL (≈ 4.85 µM) and the MIC90 [2] was 2 µg/mL (≈ 4.85 µM). The MICrange [2] was 1 to 2 µg/mL.
With `CC(=O)NC[C@H]1CN(c2ccc(N3CCN(c4ccccc4)CC3)c(F)c2)C(=O)O1` [Example 1, (S)—[N-3-(3′-fluoro-4′-(4″-phenylpiperazinyl))phenyl-2-oxo-5-oxazolidinyl]methyl acetamide] the Result ([3]; solvent 0.1N Hydrochloric acid) was “Dissolved”, the Result ([3]; solvent 0.1N Sodium hydroxide) was “Insoluble” and the Result ([3]; solvent Acetonitrile) was “Dissolved”. For the same compound, the Result ([3]; solvent Ethanol) was “Dissolved”, the Result ([3]; solvent Methanol) was “Dissolved” and the Result ([3]; solvent Water, listed as Anhydride) was “Insoluble”.
